Assays:
GHSR1a [1] = molecular target: T1, GHSR1a (Homo sapiens, UniProt Q92847); experiment: Calcium FLIPR assay, GHSR-1a antagonism (reduction of ghrelin response); type: cell-based; settings: HEK293/GHSR1a cells, ghrelin 10 nM
T1 construct: expressed in transfected cells; host or cells: HEK293
Experimental: (§1) The intracellular calcium assay was carried out in a 384-well format FLIPR™ (Molecular Device) HEK293/GHSR1a cell line. Cells were seeded 24 hr prior to the experiments at an optimal density per well. Preincubation with selected calcium dye lasted for 30-60 min at room temperature or 37° C. Test compounds, dissolved in DMSO, were added at the appropriate time and incubated for 15 min followed by the addition of ghrelin with FlexStation or FLIPR. Relative fluorescence was monitored by the FLIPR™ Molecular Device. EC50 and IC50 values were estimated from dose-response data using GraphPad Prism software. To check for GHSR-1a agonism the compound was added at t=20 sec. and the calcium response was followed for 2 minutes. To check for GHSR-1a antagonism the compound and Ghrelin (10 nM) were added to the cells at t=20 sec. and the calcium response was measured for 2 minutes. The potency of the antagonist was calculated by its ability to reduce the ghrelin response. Dose-response curves were made for relevant antagonists.

GHSR1a [2] = molecular target: T1, GHSR1a; experiment: Calcium FLIPR assay, GHSR-1a agonism; type: cell-based; parameters: Emax: unit not given here; settings: HEK293/GHSR1a cells
Experimental: as §1

T1 sequence (Q92847 whole entry): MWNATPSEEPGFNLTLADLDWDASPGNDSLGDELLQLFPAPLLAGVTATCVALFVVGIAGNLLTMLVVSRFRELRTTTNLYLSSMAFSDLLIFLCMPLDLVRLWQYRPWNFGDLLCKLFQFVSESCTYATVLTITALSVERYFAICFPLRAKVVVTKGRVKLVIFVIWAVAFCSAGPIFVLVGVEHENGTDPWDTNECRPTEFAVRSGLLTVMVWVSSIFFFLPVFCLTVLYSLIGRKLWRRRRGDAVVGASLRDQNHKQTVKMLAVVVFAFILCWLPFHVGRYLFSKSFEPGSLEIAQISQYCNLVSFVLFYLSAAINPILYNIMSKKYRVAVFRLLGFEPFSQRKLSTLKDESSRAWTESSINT

Row | Compound | IC50 (GHSR1a [1]) [nM] | EC50 (GHSR1a [2]) [nM] | Emax (GHSR1a [2])
1 | CC(NC(=O)N(C)C1CCN(C)CC1)c1ccc(-c2cnc(NC(=O)C3CC3)nc2)c(Cl)c1Cl (stereo not drawn) [Compound H0807, N-(5-(2,3-dichloro-4-(1-(3-methyl-3-(1-methylpiperidin-4-yl)ureido)ethyl)phenyl)pyrimidin-2-yl)cyclopropanecarboxamide] | 14 | 24 | 3669
2 | CC(NC(=O)N(C)C1CCN(C)CC1)c1ccc(-c2ccccn2)c(Cl)c1Cl (stereo not drawn) [Compound H0650, 3-(1-(2,3-dichloro-4-(pyridin-2-yl)phenyl)ethyl)-1-methyl-1-(1-methylpiperidin-4-yl)urea] | 4 | 9 | 2150
3 | COc1cccc(-c2ccc(C(C)NC(=O)N(C)C3CCN(C)CC3)c(Cl)c2Cl)c1 (stereo not drawn) [Compound H0606, 3-(1-(2,3-dichloro-3′-methoxy-[1,1′-biphenyl]-4-yl)ethyl)-1-methyl-1-(1-methylpiperidin-4-yl)urea] | 24 | 31 | 2336
4 | CC(NC(=O)N(C)C1CCN(C)CC1)c1ccc(CF)c(Cl)c1Cl (stereo not drawn) [Compound H0634, 3-(1-(2,3-dichloro-4-(fluoromethyl)phenyl)ethyl)-1-methyl-1-(1-methylpiperidin-4-yl)urea] | 13 | 37 | 
5 | C=Cc1ccc(C(C)NC(=O)N(C)C2CCN(C)CC2)c(Cl)c1Cl (stereo not drawn) [Compound H0626, 3-(1-(2,3-dichloro-4-vinylphenyl)ethyl)-1-methyl-1-(1-methylpiperidin-4-yl)urea] | 4 | 15 | 3835
6 | CC(NC(=O)N(C)C1CCN(C)CC1)c1ccc(-c2cncc(-c3cn[nH]c3)c2)c(Cl)c1Cl (stereo not drawn) [Compound H0707, 3-(1-(4-(5-(1H-pyrazol-4-yl)pyridin-3-yl)-2,3-dichlorophenyl)ethyl)-1-methyl-1-(1-methylpiperidin-4-yl)urea] | 185 | > 30000 | 
7 | CC(NC(=O)N(C)C1CCN(C)CC1)c1ccc(C#Cc2ccc(CO)s2)c(Cl)c1Cl (stereo not drawn) [Compound H0775, 3-(1-(2,3-dichloro-4-((5-(hydroxymethyl)thiophen-2-yl)ethynyl)phenyl)ethyl)-1-methyl-1-(1-methylpiperidin-4-yl)urea] | 74 | > 5000 | 
8 | C#Cc1ccc(C(C)NC(=O)N(OC)C2CCN(C)CC2)c(Cl)c1Cl (stereo not drawn) [Compound H0742, 3-(1-(2,3-dichloro-4-ethynylphenyl)ethyl)-1-methoxy-1-(1-methylpiperidin-4-yl)urea] | 54 | > 30000 | 
9 | CC(NC(=O)N(C)C1CCN(C)CC1)c1ccc(C#CCO)c(Cl)c1Cl (stereo not drawn) [Compound H0755, 3-(1-(2,3-dichloro-4-(3-hydroxyprop-1-yn-1-yl)phenyl)ethyl)-1-methyl-1-(1-methylpiperidin-4-yl)urea] | 12 | 10 | 2196
10 | CCc1cncc(-c2ccc(C(C)NC(=O)N(C)C3CCN(C)CC3)c(Cl)c2Cl)c1 (stereo not drawn) [Compound H0715, 3-(1-(2,3-dichloro-4-(5-ethylpyridin-3-yl)phenyl)ethyl)-1-methyl-1-(1-methylpiperidin-4-yl)urea] | 57 | 42 | 2479
11 | COc1ccc(C(C#N)NC(=O)N(C)C2CCN(C)CC2)c(Cl)c1Cl (stereo not drawn) [Compound H0669, 3-(cyano(2,3-dichloro-4-methoxyphenyl)methyl)-1-methyl-1-(1-methylpiperidin-4-yl)urea] |  | 5 | 4961
12 | COC(=O)c1ccc(C#Cc2ccc(C(C)NC(=O)N(C)C3CCN(C)CC3)c(Cl)c2Cl)s1 (stereo not drawn) [Compound H0779] | 429 |  | 
13 | CC(NC(=O)N(C)C1CCN(C)CC1)c1ccc(-c2cncnc2)c2ccccc12 (stereo not drawn) [Compound H0579, 1-methyl-1-(1-methylpiperidin-4-yl)-3-(1-(4-(pyrimidin-5-yl)naphthalen-1-yl)ethyl)urea] |  | > 30000 | 
